Assay results: patent publication US20210236487A1, “Methods and Compositions for Treatment of Cancer with PARP Inhibitors” (Rush University Medical Center, priority 2018, published 2021)
Values joined by “and” are separate entries in the source; they are usually repeats but may differ in a detail not shown here. Equal entries are not always repeated. “Also recorded” adds a separate entry of the source. Blank lines part the entries; values can stand above or below the compound they belong to.

Legend:
[1] = Hellman, 1964; cited from earlier work
[2] = Response to folic acid supplementation in patients on olaparib; type: in vivo, human; conditions: for Response to folic acid supplementation: on olaparib
Description: (§1) A formal assessment of folic acid level along with a chart review of olaparib treated ovarian cancer patients was conducted to determine the frequency of severe folic acid deficiency in this population and the impact of replacement therapy on outcome. This was an IRB-approved study performed at Rush University Medical Center from Dec. 1, 2016 to Apr. 3, 2017. Data collection was conducted in accordance with good clinical practice guidelines and the provisions of declaration of Helsinki. Data collected included cancer history, date of initiation of olaparib, duration of olaparib use, CBC data, peripheral smear/RBC morphology data, Vitamin B12, folic acid levels, iron studies with ferritin, reticulocyte count, LDH levels, haptoglobin levels, TSH levels, any treatment administered for hematological toxicities including nutritional supplementation or blood product transfusion, dose reductions or cessation of olaparib use and indication for such intervention were collected for all patients.

[3] = test system: gBRCA-mutated advanced ovarian cancer; conditions: Phase II trials, cited from earlier work
[4] = Serum folic acid level in olaparib-treated cancer patients (chart review / case series); type: in vivo, human; conditions: for Folic Acid Level: on olaparib, reference range 7.0-31.4 ng/mL
Description: as §1

[5] = Hematologic toxicity (Hgb, MCV, other abnormalities, transfusion, dose reduction) in olaparib-treated patients (chart review / case series); type: in vivo, human; conditions: for Transfusion requirement: secondary to anemia noted after administration of Olaparib; for Transfusion required: secondary to anemia noted while patient receiving olaparib
Description: as §1

ovarian cancer = test: Treatment outcome on olaparib (case series); type: in vivo, human
Description: as §1

[6] = cited from earlier work
[7] = Table 1, patient/age c1 A/61, c2 B/78, c3 C/63, c4 D/57
[8] = Table 2a, patient/age c1 A/61, c2 B/78, c3 C/63, c4 D/57
[9] = Table 2b, patient/age c1 E, c2 F, c3 G, c4 H
[10] = Table 3a, patient/age c1 A/62, c2 B/78, c3 C/63, c4 D/57
[11] = Table 3b, patient/age c1 E, c2 F, c3 G, c4 H

SMILES: CN(Cc1cnc2nc(N)nc(N)c2n1)c1ccc(C(=O)N[C@@H](CCC(=O)O)C(=O)O)cc1 [Methotrexate]
serum folate level [1]: variably decreased

Hgb stabilized after supplementation ([2]; Patient C, folic acid supplementation increased to 2 mg TID, olaparib briefly held): around 9 g/dL
SMILES: Nc1nc2ncc(CNc3ccc(C(=O)N[C@@H](CCC(=O)O)C(=O)O)cc3)nc2c(=O)[nH]1 [folic acid]
anemia and macrocytosis after folic acid supplementation ([2]; Patient A on olaparib, oral folic acid 1 mg daily): improved
Hgb after folic acid supplementation ([2]; Patient B, two weeks after starting folic acid 1 mg daily, no longer required blood transfusions): markedly improved
folic acid level after supplementation ([2]; Patient C on olaparib, two weeks of folic acid 1 mg daily, minimally increased from prior value): 2.9 ng/mL
folic acid level after supplementation ([2]; Patient C, folic acid supplementation increased to 2 mg TID): normalized
folic acid level after supplementation ([2]; Patient D on olaparib, folic acid 1 mg daily): subsequent improvement
Response to folic acid supplementation ([2]; Table 1, patient/age c1 A/61, c2 B/78, c3 C/63, c4 D/57, improvement of folic acid level to within the reference range (≥7.0 ng/mL)): Yes
Response to folic acid supplementation ([2]; Table 2a, patient/age c1 A/61, c2 B/78, c3 C/63, c4 D/57, improvement of folic acid level to within the reference range (≥7.0 ng/mL)): Yes and No
Response to folic acid supplementation ([2]; Table 2b, patient/age c1 E, c2 F, c3 G, c4 H, improvement of folic acid level to within the reference range (≥7.0 ng/mL)): Yes
Response to folic acid supplementation ([2]; Table 3a, patient/age c1 A/62, c2 B/78, c3 C/63, c4 D/57, improvement of folic acid level to within reference range): Yes
Response to folic acid supplementation ([2]; Table 3b, patient/age c2, improvement of folic acid level to within reference range): Yes
correction of olaparib-induced folic acid deficiency ([2]; folic acid supplementation at variable doses): can correct

folic acid level (severe folic acid deficiency) in three additional patients ([4]; 3 other women, after taking olaparib for at least four weeks): < 1.6 ng/mL
folate level ([4]; Case report, Patient A on olaparib, Normal: 7-31.4 ng/mL): < 1.6 ng/mL
folic acid level (severe folic acid deficiency) ([4]; Patient B on olaparib): < 1.6 ng/mL
folic acid level (severe folic acid deficiency) ([4]; Patient C, approximately 4 weeks after starting olaparib): < 1.6 ng/mL
folic acid level (severely low) ([4]; Patient D on olaparib): 1.6 ng/mL
Folic Acid Level [4, 7]: <1.6 ng/mL and 1.6 ng/mL
Folic Acid Level [4, 8]: <1.6 ng/mL and 1.6 ng/mL
folate level after initiation of olaparib ([4]; available laboratory data of the case series): drops precipitously within weeks
SMILES: O=C(c1cc(Cc2n[nH]c(=O)c3ccccc23)ccc1F)N1CCN(C(=O)C2CC2)CC1 [olaparib, 4-[(3-[(4-cyclopropylcarbonyl)piperazin-4-yl]carbonyl)-4-fluorophenyl]methyl(2H)-phthalazin-1-one]
progression-free survival ([3]; advanced ovarian cancer): significantly prolonged
overall response rate (ORR) ([3]; gBRCA-mutated advanced ovarian cancer, three or more previous lines of chemotherapy): 34%
Folic Acid Level [4, 9]: 4.9 ng/mL and 5.2 ng/mL and 3.7 ng/mL and 6.2 ng/mL
patients who developed transfusion-dependent anemia ([5]; 4 cases, in the course of treatment with olaparib): Three of the four
hgb (severe anemia) ([5]; Case report, Patient A, after 5 weeks of olaparib therapy, requiring blood transfusion): 6.6 g/dL
MCV (macrocytic anemia) ([5]; Case report, Patient A, at the time of Hematology evaluation): 110.7 fL
Hgb (macrocytic anemia) ([5]; Case report, Patient A, at the time of Hematology evaluation, olaparib reduced to 100 mg BID): 9.0 g/dL
Hgb (acute decrease) ([5]; Patient B, five weeks after starting olaparib, from 8 g/dL, requiring blood transfusion): 6.8 g/dL
Hgb (further decrease) ([5]; Patient C on olaparib, two weeks after start of folic acid 1 mg daily, requiring blood transfusion): 6.3 g/dL
Hgb (drop in baseline) ([5]; Patient C, approximately 4 weeks after starting olaparib, from 14 g/dL): 10 g/dL
Hgb (mild anemia) ([5]; Patient D, while on olaparib for 6 months): 9 to 10 g/dL
Dose Reduction or Delay of Olaparib/Cause ([5]; Table 1, patient/age c1 A/61, c2 B/78, c3 C/63, c4 D/57, cause of dose change): anemia
Dose Reduction or Delay of Olaparib/Cause ([5]; Table 1, patient/age c1 A/61, c2 B/78, c3 C/63, c4 D/57, dose reduced or delayed): Yes/ and No
Other Hematologic Abnormalities ([5]; Table 1, patient/age c1 A/61, c2 B/78, c3 C/63, c4 D/57, noted at time of initial Hematology assessment): Leukopenia and None and Thrombo-
Hgb Nadir ([5]; Table 1, patient/age c1 A/61, c2 B/78, c3 C/63, c4 D/57, on olaparib, reference range 12.0-16.0 g/dL): 6.6 g⁻¹ dL⁻¹ and 6.3 g⁻¹ dL⁻¹ and 8.8 g⁻¹ dL⁻¹
MCV Nadir ([5]; Table 1, patient/age c1 A/61, c2 B/78, c3 C/63, c4 D/57, on olaparib, reference range 82.0-103.0 fL): 110.7 fL and 102.0 fL and 91.6* fL and 98.1 fL
Transfusion requirement [5, 7]: Yes and No
Dose Reduction or Delay of Olaparib/Cause [5, 8]: Yes, anemia and Yes, and No and anemia
Other Hematologic Abnormalities ([5]; Table 2a, patient/age c1 A/61, c2 B/78, c3 C/63, c4 D/57, noted at time of initial Hematology assessment): Leukopenia; and None and Thrombo-
Hgb Nadir ([5]; Table 2a, patient/age c1 A/61, c2 B/78, c3 C/63, c4 D/57, on olaparib, reference range 12.0-16.0 g/dL): 6.6 g⁻¹ dL⁻¹ and 6.3 g⁻¹ dL⁻¹ and 8.8 g⁻¹ dL⁻¹
MCV Nadir ([5]; Table 2a, patient/age c1 A/61, c2 B/78, c3 C/63, c4 D/57, on olaparib, reference range 82.0-103.0 fL): 110.7 fL and 102.0 fL and 91.6* fL and 98.1 fL
Transfusion requirement [5, 8]: Yes and No
Dose Reduction or Delay of Olaparib/Cause [5, 9]: No and Yes, neutropenia, and Yes, folic acid and anemia, fatigue, and dyspnea
Other Hematologic Abnormalities ([5]; Table 2b, patient/age c1 E, c2 F, c3 G, c4 H, noted at time of initial Hematology assessment): Leukopenia;; also recorded: Leukopenia; also recorded: Thrombocytopenia
MCV Nadir ([5]; Table 2b, patient/age c1 E, c2 F, c3 G, c4 H, on olaparib, reference range 82.0-103.0 fL): 112.0 fL and 115.8 fL and 93.2 fL and 98.9 fL
Transfusion requirement [5, 9]: No and Yes
Dose Reduction or Delay of Olaparib/Cause [5, 10]: Yes/anemia and No
Hgb Nadir ([5]; Table 3a, patient/age c1 A/62, c2 B/78, c3 C/63, c4 D/57, lowest value documented while receiving olaparib, reference range 12.0 to 16.0 g/dL): 6.6 g⁻¹ dL⁻¹ and 6.3 g⁻¹ dL⁻¹ and 8.8 g⁻¹ dL⁻¹
Other Hematologic Abnormalities ([5]; Table 3a, patient/age c1 A/62, c2 B/78, c3 C/63, c4 D/57, noted at time of initial hematologic assessment): Thrombo- and Leukopenia; and None
Transfusion required [5, 10]: Yes and No
MCV Nadir ([5]; Table 3a, patient/age c1 A/62, c2 B/78, c3 C/63, c4 D/57, while receiving olaparib, reference range 82.0 to 103.0 fL): 110.7 fL and 102.0 fL and 91.6 fL and 98.1 fL
Hgb Nadir ([5]; Table 3b, patient/age c1 E, c2 F (200 mg once per day), c3 G, c4 H (metastatic breast cancer), lowest value while receiving olaparib, reference range 12.0 to 16.0 g/dL): 10.8 g⁻¹ dL⁻¹ and 8.1 g⁻¹ dL⁻¹ and 12.2 g⁻¹ dL⁻¹ and 10.4 g⁻¹ dL⁻¹
Dose Reduction or Delay of Olaparib/Cause ([5]; Table 3b, patient/age c1 E, c2 F (reduced dose 200 mg once per day from the onset), c3 G/52, c4 H/35): No and No^k and Yes/rash
Other Hematologic Abnormalities ([5]; Table 3b, patient/age c1 E, c2 F, c3 G, c4 H, noted at time of initial hematologic assessment): Leukopenia; and None and Thrombo-
Transfusion required [5, 11]: No
MCV Nadir ([5]; Table 3b, patient/age c1 E, c2 F, c3 G, c4 H, while receiving olaparib, reference range 82.0 to 103.0 fL): 105.6 fL and 103.1 fL and 93.5 fL and 85.8 fL
Treatment outcome: discontinued because of (ovarian cancer; [10]): progression; also recorded: refractory anemia; also recorded: diarrhea
Treatment outcome: treatment stopped after (ovarian cancer; Table 3b, patient E/73): after 20 days
Treatment outcome: discontinued because of / status (ovarian cancer; [11]): months; ongoing; also recorded: progression
myelodysplastic syndrome/Acute Myeloid Leukemia, olaparib-treated patients ([6]; Olaparib PI): 2%
adverse reactions leading to discontinuation of olaparib, patients ([6]; clinical trials (Olaparib PI)): 9%
adverse reactions leading to dose interruptions, patients ([6]; clinical trials (Olaparib PI)): 26%
adverse reactions leading to dose reductions, patients ([6]; clinical trials (Olaparib PI)): 15%
